Laboratory results from US7867747B2, “Fibrinolytic metalloprotease and composition comprising the same” (priority 2006, dated 2011).
Structures can show the parent of a compound that is named as a salt. Where two headings read alike, the source gives them in different places.

What was measured:
Format in all cases: biochemical
[1] = system: zinc-dependent metalloprotease (purified recombinant enzyme)
azocasein [2] = experiment: Effects of temperature and pH on enzyme activity (azocasein assay)
Method: (§1) Specifically, all assays were conducted in a 50 mM Tris-HCl (pH 7.0) buffer. Enzyme samples (100 μl) obtained in Example 2 were added to 100 μl of 1% (w/v) azocasein and the reaction mixture was incubated at 50° C. for 1 h and terminated by the addition of 400 μl of 10% (w/v) trichloroacetic acid. The precipitated protein was removed by centrifugation (12,000×g, 5 min), and the resulting supernatant was transferred to a clean tube containing 700 μl of 525 mM NaOH. Absorbance was measured at 442 nm.
The optimal temperature for protease activity was examined in the buffer used in the standard assay at various temperatures. The values on the ordinate are shown as percentages of the enzyme activity (100%) observed at 50° C.
The optimal pH for the protease activity was determined in various buffers at 50° C. The buffers used were sodium acetate buffers (open rectangles, pH 5.0-6.0), Tris-HCl buffers (open triangles, pH 6.0-8.0) and glycine-NaOH buffers (open circles, pH 8.0-9.0).
The values on the ordinate are shown as percentages of the enzyme activity (100%) observed at pH 7.0. […] The optimal pH for the activity of protease was 7.0 (FIG. 3B).

[3] = system: fibrin (human fibrinogen clotted with human thrombin); experiment: Fibrinolytic assay, hydrolysis of fibrin clots analysed by SDS-PAGE; conditions: 37° C.
Method: Fibrinolytic activity was determined using the method described by Datta et al. (Datta, et al., Arch. Biochem. Biophys. Vol. 317, pp 365-373, 1995) with minor modifications.
Specifically, 10 μl of 1% human fibrinogen (Sigma, USA) solution (prepared in a 20 mM Tris/HCl (pH 7.4) buffer) was added to human thrombin (0.05 NIH unit, Sigma, USA), and then allowed to stand for 1 h at room temperature. […] The hydrolysis of fibrin by the enzyme was analyzed by SDS-PAGE (FIG. 4). 5 μl each of reaction solutions was obtained at various time intervals and analyzed using an 11% SDS-PAGE gel.

azocasein [4] = experiment: Protease activity assay, release of acid-soluble material from azocasein; conditions: 50 mM Tris-HCl pH 7.0, 50° C., 1 h, by purification step
Method: Protease activity was determined by measuring the release of acid-soluble material from azocasein (Sigma, USA) (Windle, H. J. P. et al., Infect. Immun. Vol. 65, pp 3132-3137, 1997).
as §1
One unit of protease activity was defined as an amount required for producing enough acid-soluble material from azocasein to yield absorbance of 0.1 at 442 nm, following 1 h incubation at 50° C.

[5] = 1 mM, pre-incubation 25° C. 30 min, 50 mM Tris-HCl pH 7.0, no addition = 100

With `c1cnc2c(c1)ccc1cccnc12` [1,10-phenanthroline] the “effect on enzyme activity (in words)” value ([1]; 1 mM, as shown in Table 2) was “inhibited” and the Relative activity [1, 5] was 55%.

`[Ca+2].[Cl-].[Cl-]` [CaCl2] was tested, and the “effect on enzyme activity (in words)” value ([1]; 1 mM, as shown in Table 2) was “enhanced” and the Relative activity [1, 5] was 200%.

For `[Cl-].[Cl-].[Co+2]` [CoCl2], the “effect on enzyme activity (in words)” value [1] was “enhanced” and the Relative activity ([1]; 1 mM) was 280%.

`O=S(=O)([O-])[O-].[Cu+2]` [CuSO4] gave a Relative activity [1, 5] of 100%.

`O=C(O)CN(CCN(CC(=O)O)CC(=O)O)CC(=O)O` [EDTA, ethylenediaminetetraacetic acid] was tested, and the “effect on enzyme activity (in words)” value [1] was “inhibited” and the Relative activity ([1]; pH 7) was 27%.

In the case of `O=C(O)CN(CCOCCOCCN(CC(=O)O)CC(=O)O)CC(=O)O` [EGTA, ethylene glycol-bis(2-aminoethylether)-N,N,N′,N′-tetraacetic acid], the “effect on enzyme activity (in words)” value ([1]; 1 mM, as shown in Table 2) is reported as “inhibited” and the Relative activity [1, 5] is reported as 21%.

For `O=S(=O)([O-])[O-].[Fe+2]` [FeSO4], the Relative activity [1, 5] was 100%.

In the case of `N=C(N)N` [Guanidine hydrochloride, guanidine hydrochloride], the “effect on enzyme activity (in words)” value ([1]; 0.5 M) is reported as “strongly inhibited” and the Relative activity ([1]; 500 mM, pre-incubation 25° C. 30 min, 50 mM Tris-HCl pH 7.0, no addition = 100) is reported as 22%.

With `[Cl-].[Cl-].[Mg+2]` [MgCl2] the “effect on enzyme activity (in words)” value ([1]; 1 mM, as shown in Table 2) was “inhibited” and the Relative activity [1, 5] was 20%.

For `O=S(=O)([O-])[O-].[Ni+2]` [NiSO4], the “effect on enzyme activity (in words)” value ([1]; 1 mM, as shown in Table 2) was “enhanced” and the Relative activity [1, 5] was 140%.

For `O=S(=O)(F)Cc1ccccc1` [PMSF, phenylmethylsulfonyl fluoride], the “effect on enzyme activity (in words)” value ([1]; 1 mM, as shown in Table 2) was “no influence” and the Relative activity [1, 5] was 104%.

With `CCCCCCCCCCCCOS(=O)(=O)[O-].[Na+]` [SDS, sodium dodecyl sulfate] the Relative activity ([1]; 17 mM, pre-incubation 25° C. 30 min, 50 mM Tris-HCl pH 7.0, no addition = 100) was 9% and the “effect on enzyme activity (in words)” value ([1]; 0.05% SDS) was “easily denatured”.

`[Cl-].[Cl-].[Zn+2]` [ZnCl2] was tested, and the “effect on enzyme activity (in words)” value ([1]; 1 mM, as shown in Table 2) was “inhibited” and the Relative activity [1, 5] was 80%.

B1: recombinant protease: Zinc-dependent fibrinolytic metalloprotease, 359 amino acids (SEQ ID NO:2), about 39 kDa, from deep-sea sediment metagenome, expressed in E. coli, purified by chitin affinity … (protein)
chain: MEPEPIKTCTVLENPGYQPIHAPTDVSPQPVLAAMEAVPVPTPPPTVDAVMLFRKKWRDGKILRVHFMDGDPDVHRKVEEVAHTWSRHANVRFKFVDDPAADIRISFTQPGSWSYLGTDALRIARSQSTMNFGWLTPRSPDSEYNRVVIHEFGHALGLVHEHQNPDNGIPWNKPAVYEYYSGPPNNWSKEQVDTNLFQQYSEDQVRFTGFDRESIMLYPIPNEFTVGDFEVGWNRDLSADDKEFIGRMYPKPANELIVDDPPRASEISRYGEIDTYTFLVTQKGSYRIETDGRTDLVMLLYGPEDDTKLIAADDDSGRRLNPRITEELDWGKYTVRLQHFSQRQTGKYAVGVYRDDAAE
modifications: Protein sequence of coding metalloprotease ES6349
With B1 the “Enzyme activity compared with the enzyme activity (100%) at 50° C.” value (azocasein [2]; at 40° C.) was 26%, the “Enzyme activity compared with the enzyme activity (100%) at 50° C.” value (azocasein [2]; at 60° C.) was 18% and the “optimal temperature for the activity of the protease” value (azocasein [2]; standard assay buffer, 1 h) was 50 °C. The “optimal pH for the activity of protease” value (azocasein [2]; various buffers at 50° C.) was 7.0, the “hydrolysis of the β-chain of fibrin” value ([3]; after 30 min) was “partially hydrolyzed” and the “hydrolysis of the α-chain of fibrin” value ([3]; after 1 h) was “completely hydrolyzed”. The “hydrolysis of the γ-γ-chain of fibrin” value ([3]; after 1 h) was “completely hydrolyzed”, the “hydrolysis of the β-chain of fibrin” value ([3]; after 2 h) was “not completely hydrolyzed” and the “hydrolysis of the β-chain of fibrin” value ([3]; after 24 h (data not shown)) was “not completely hydrolyzed”. The Specific activity (azocasein [4]) was 76,000 U/mg and the Specific activity (azocasein [4]; listed as Affinity chromatography) was 3,400 U/mg.
